Experimental data taken from patent publication US9458101B2 (priority 2009, dated 2016).

Assays:
[1] = system: A549, HeLa, MCF-7 and CEM cell lines; experiment: Cytotoxicity, mean over A549, HeLa, MCF-7 and CEM cell lines; details: for average IC50 values compared with colchicine: average values of Table 3; for IC50 [log10 M] (mean logIC50): mean over A549, HeLa, MCF-7 and CEM cell lines; for cytotoxicity compared with colchicine: cytotoxicity assays
From the text: (§1) Cell lines used were A549 (Human lung carcinoma), HeLa (Human cervical carcinoma), MCF-7 (Human mammary gland adenocarcinoma), CEM (Human T-lymphoblastoid from ALL (Acute lymphoblastic leukemia)), M010B (Human glioma), M006X (Human glioma) and Jurkat (Human T-cell leukemia).
(§2) A primary MTS assay was used to test the optimal number of cells for cytotoxicity assays. Cells were trypsinized, counted and introduced into seven lanes of a 96-well plate at different cell numbers (eight replicates per lane). Optimal cell numbers were determined after 72 and 96 hours of growth and were used in subsequent cytotoxicity assays. […] Cell viability was determined using the Cell Titer 96 AQueous One Solution Cell Proliferation Assay (Promega, U.S.A.).
(§3) [formula] […] Itop is the response obtained at very low/no drug concentration. The data and all parameters were normalized to Itop−Ibot, a measure of the maximum effect of the drug.
Cytotoxicity screening was performed on a number of cell lines based on the cancer of origin and differing morphologies.

[2] = system: CEM (Human T-lymphoblastoid from ALL); experiment: Cytotoxicity testing (MTS) on CEM; format: cell-based
Method: as §1
(§4) A series of dilutions were prepared and a wavelength scan of the diluted solution was used to determine the wavelength of maximum absorbance for each compound. Five standardized drug concentrations were scanned at this pre-determined wavelength to obtain an estimate of the compound's extinction coefficient.
as §2
(§5) Fits were performed using a dose-response model ideal for data showing an initial response plateau, a transition region, and a final response plateau.
as §3

[3] = system: A549 (Human lung carcinoma); experiment: Cytotoxicity testing (MTS) on A549; format: cell-based
Method: as §1, §4, §2, §5, §3

[4] = system: HeLa (Human cervical carcinoma); experiment: Cytotoxicity testing (MTS) on HeLa; format: cell-based
Method: as §1, §4, §2, §5, §3

CEM cells [5] = experiment: Viability of 3-D CEM cell cultures in Hollow Fiber Bioreactor (HFB), trypan blue; format: cell-based, Human; details: samples analysed by HPLC
Method: CEM cells (American Type Culture Collection, Manassas, Va.) were maintained in tissue culture flasks and cultured as monolayer in 20 mL of RPMI media containing 10% Fetal Bovine Serum (FBS). When the number of cells in the culture flask reached 5-6×10^6 cells/mL the culture was harvested and then inoculated into six Hollow Fiber Bioreactors (HFB, FiberCells System, Frederick, Md.) and were continuously cultured in 37° C. and 5% CO2. HFB consists of a single, hydrophylic and polysulfone fiber with 0.1 μm diameter pores. The media circulating within the HFB cartridge and polysulphone tubing, at flow rate of 14 mL/min, brings oxygen and nutrients to cells and removes CO2 and other waste. Collagen solution was used to create an extra cellular matrix between the cells and the fiber. The polysulphone fiber was coated with protein by flushing with 10 mL of coating solution containing 1 mg collagen per 1 mL Phosphate Buffered Saline (PBS). The pH was maintained in the extra-capillary space throughout the duration of experiments between 6.8 and 7.0. Due to the perfusion the HFB absorbed sufficient oxygen from the reservoir with fresh media to keep cells alive. The perfusion medium was changed weekly when the glucose level reached 2 g/L measured with a glucometer.
Viability was assessed using trypan blue (K. Takahashi, G. Loo, Biochem. Pharm. 67 (2004) 315-324). Briefly, CEM cells were harvested from HFB, seeded in 6 well microplates and exposed to 0.4% (w/v) trypan blue dye solution. Cell number was determined manually with a hemacytometer chamber (Hausser Scientific, Horsham, Pa.).
Approximately 4×10^4 CEM cells/ml were treated on culture plates and placed for the 72 h incubation with (2-16) and (28-38) derivatives. All compounds were used for in vitro experiments and then the derivatives were selected for HFB studies to treat 10^9 CEM cells/mL in the 3-D cultures. The cells were treated 4 weeks after the cells' inoculation in the HFB. After 72 h, the growth was inhibited over 50% for 20 nM and higher concentrations in cells treated with (6), (13), (28) and (35).
CEM cells, American Type Culture Collection (Manassas, Va.), were maintained in tissue culture flasks and cultured as monolayer in 20 ml of RPMI media containing 10% Fetal Bovine Serum (FBS) and divided from 5×10^5 cells/mL to 2.5×10^4 cells/mL two times per week. When the number of the cells in the culture flask reached 5-6×10^6 cells/ml the culture was harvested and then inoculated into six Hollow Fiber Bioreactors (HFB, FiberCells System Inc., Frederick, Md.) and then continuously cultured in 37° C. and 5% CO2. The HFB consists of a single, hydrophylic and polysulfone fiber with 0.1 μm diameter pores. The media circulate within the HFB cartridge and polysulphone tubing, at flow rate of 14 mL/min, bringing oxygen and nutrients to cells and removing CO2 and other waste. Collagen solution was used to create an extracellular matrix between cells and fiber. The polysulfone fiber was coated with protein by flushing with 10 mL of coating solution containing 1 mg collagen per 1 mL Phosphate Buffered Saline (PBS). In this manner, CEM cells growing originally in suspension build up a 3-D solid tumor. During 4 weeks of culturing, the media were replaced each week.
The number of cells was determined using Trypan blue (Sigma-Aldrich, Oakville, ON) exclusion method (K. Takahashi, G. Loo, Biochem. Pharmacol. 67 (2004) 315-324). Briefly, CEM cells were harvested from HFB, seeded in 6 well microplates and exposed to 0.4% (w/v) trypan blue dye solution. Cell number was determined manually with a hemacytometer chamber (Hausser Scientific, Horsham, Pa.).

M006X (Human glioma) = experiment: Cytotoxicity testing (MTS) on M006X; format: cell-based
Method: as §1, §4, §2, §5, §3

M010B (Human glioma) = experiment: Cytotoxicity testing (MTS) on M010B; format: cell-based
Method: as §1, §4, §2, §5, §3

[6] = system: MCF-7 (Human mammary gland adenocarcinoma); experiment: Cytotoxicity testing (MTS) on MCF-7; format: cell-based
Method: as §1, §4, §2, §5, §3

CEM cells [7] = experiment: HPLC-UV profile of treated CEM cells; format: cell-based, Human; details: eluted at 53 min
Method: Digested cell samples were fractionated with a Gold HPLC chromatograph system equipped with a Gold 166 Ultra Violet (UV) Detector and 32-Karat software (Beckman-Coulter, Mississauga, ON, Canada). For reversed-phase HPLC, a Vydac 218 TP54 Protein & Peptide C18 analytical column, 300 Å pore size, 0.46 cm×25 cm (Separation Group, Hesperia, Calif., U.S.A.) was used. The chromatograph was equipped with a Rheodyne injector (5 μL). UV detection was performed at 245 nm. Eluent A consisted of 5% acetonitrile (ACN) water solution and eluent B of 0.01% trifluoroacetic acid in 95% ACN water solution. A linear gradient from 5 to 70% ACN was applied over 60 min.
It was assumed that signals eluted at 30-35 min were unreacted derivatives with variable intensity of 0.1 V for (28) and (35) as well as 0.35 V for (13) and 0.9 V for (6). […] An additional signal eluted at 57 min occurred in samples treated with (35) and (28) (FIGS. 10D and 10E). The signals at 57 min differ at about 5 min in elution present one from cascade of apoptotic protein in treated cells. The peak intensity of 0.3 V (28) and 0.2 V (35) corresponded to viability of cells 38% (28) and 35% (35) and unreacted derivatives 0.1 (28), 0.1 (35), respectively. The undefined additional peaks with very low intensities, less then 0.05 V, are the metabolites of derivatives or unreacted compounds.

Structure (SMILES) | average IC50 values compared with colchicine [1] | IC50 [log10 M] (mean logIC50) [1] | Fraction of cells that survive at the highest drug concentrations (Ibot) [2] | logIC50 [2] [log10 M] | Fraction of cells that survive at the highest drug concentrations (Ibot) [3] | logIC50 [3] [log10 M] | Fraction of cells that survive at the highest drug concentrations (Ibot) [4] | logIC50 [4] [log10 M] | viability of cell cultures (CEM cells [5]) | Fraction of cells that survive at the highest drug concentrations (Ibot) (M006X (Human glioma)) | logIC50 (M006X (Human glioma)) [log10 M] | Fraction of cells that survive at the highest drug concentrations (Ibot) (M010B (Human glioma)) | logIC50 (M010B (Human glioma)) [log10 M] | Fraction of cells that survive at the highest drug concentrations (Ibot) [6] | logIC50 [6] [log10 M] | expression of MHC (class I) receptor, HPLC peak intensity (CEM cells [7]) [V] | cytotoxicity compared with colchicine [1]
CCOc1c(OC)c(OC)cc2c1-c1ccc(OC)c(=O)cc1[C@@H](NC(C)=O)CC2 [Compound 6, N-[(7S)-1-(ethoxy)-2,3,10-trimethoxy-9-oxo-5,6,7,9-tetrahydrobenzo[α]heptalen-7-yl]acetamide] | stronger than colchicine | −7.95 ± 0.09 | −0.062 ± 0.026 | −8.64 ± 0.08 | 0.249 ± 0.030 | −7.83 ± 0.10 | 0.089 ± 0.026 | −7.89 ± 0.06 | 50%±4 | 0.039 ± 0.011 | −8.41 ± 0.08 | 0.108 ± 0.013 | −7.94 ± 0.04 | 0.605 ± 0.015 | −7.42 ± 0.13 | – | –
COc1cc2c(c(-c3cccnc3)c1OC)-c1ccc(OC)c(=O)cc1[C@@H](NC(C)=O)CC2 [Compound 13, N-[(7S)-2,3,10-trimethoxy-9-oxo-1-((pyridin(3))yl)-5,6,7,9-tetrahydrobenzo[α]heptalen-7-yl]acetamide] | – | −5.13 ± 0.17 | −0.026 ± 0.039 | −5.50 ± 0.10 | 0.218 ± 2.644 | −4.51 ± 0.32 | 0.059 ± 0.059 | −5.33 ± 0.14 | 45%±2 | 0.055 ± 0.046 | −5.67 ± 0.12 | 0.305 ± 0.053 | −4.90 ± 0.09 | 0.364 ± 0.038 | −5.19 ± 0.09 | 0.05 | –
COc1cc2c(c(OCC(C)C)c1OC)-c1ccc(OC)c(=O)cc1[C@@H](NC(C)=O)CC2 [Compound 7a, N-[(7S)-2,3,10-trimethoxy-1-(2-methylpropoxy)-9-oxo-5,6,7,9-tetrahydrobenzo[α]heptalen-7-yl]acetamide] | – | −6.53 ± 0.10 | 0.022 ± 0.020 | −6.76 ± 0.08 | 0.222 ± 0.026 | −6.52 ± 0.13 | 0.051 ± 0.032 | −6.66 ± 0.11 | – | 0.197 ± 0.024 | −7.12 ± 0.06 | 0.239 ± 0.031 | −6.60 ± 0.14 | 0.406 ± 0.014 | −6.17 ± 0.06 | – | moderately better than colchicine
CCOc1cc2c(c(OC)c1OC)-c1ccc(SC)c(=O)cc1[C@@H](NC(C)=O)CC2 [Compound 42, N-[(7S)-3-ethoxy-1,2-dimethoxy-10-methylsulfanyl-9-oxo-5,6,7,9-tetrahydrobenzo[α]heptalen-7-yl]acetamide] | stronger than colchicine | −8.44 ± 0.11 | 0.026 ± 0.018 | −8.64 ± 0.09 | 0.256 ± 0.015 | −8.37 ± 0.10 | 0.046 ± 0.026 | −8.47 ± 0.14 | – | 0.184 ± 0.021 | −8.83 ± 0.08 | 0.327 ± 0.023 | −8.27 ± 0.12 | 0.538 ± 0.010 | −8.28 ± 0.10 | – | consistently the most effective
